For nine compounds, TGI and GI50 results are on record in PubChem BioAssay (NCI).

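Assay format: 96-well plates, 48-hour exposure. Abbreviation: GI50, concentration required for 50% inhibition of growth. Definition used: TGI = concentration required for complete inhibition of growth.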

Some test systems named below: EKVX NSCLC; NCI-H226 lung; OVCAR-8 ovarian; SF-539 CNS; 786-0 renal; UACC-62 melanoma; A549 NSCLC; SNB-75 CNS; NCI-H23 lung; U251 CNS.
Experiment in all cases: NCI anticancer screen, dose series, 48 h

Take `Nc1cc2c3c(cccc3c1)C(=O)N(CCN1CCN(CCN3C(=O)c4cccc5cc(N)cc(c45)C3=O)CC1)C2=O`: the TGI in the test with EKVX NSCLC, in the test with NCI-H226 lung, in the test on OVCAR-8 ovarian, with SF-539 CNS, in the test on 786-0 renal and with UACC-62 melanoma was greater than 100 µM in each case. The TGI in the test with A549 NSCLC, in the test with SNB-75 CNS, in the test on NCI-H23 lung and in the test on U251 CNS was greater than 100 µM throughout.
With `C[C@@H](Oc1cc(-n2cnc3ccc(OCC4CCN(C)CC4)cc32)sc1C(N)=O)c1ccccc1C(F)(F)F`, the GI50 was 0.653 µM in the test with EKVX NSCLC; 1.55 µM in the test on NCI-H226 lung; 0.0896 µM with OVCAR-8 ovarian; 0.144 µM in the test with SF-539 CNS; 0.523 µM in the test on 786-0 renal; 0.0964 µM in the test on UACC-62 melanoma. Besides, the GI50 in the test with A549 NSCLC was 0.131 µM; with SNB-75 CNS, 0.0853 µM; in the test with NCI-H23 lung, 0.118 µM; with U251 CNS, 0.11 µM. Besides, the TGI in the test with EKVX NSCLC came to 5.04 µM; in the test with NCI-H226 lung it was 6.16 µM; with OVCAR-8 ovarian it was 2.85 µM; in the test on SF-539 CNS it was 1.08 µM; in the test on 786-0 renal, 4.24 µM; in the test with UACC-62 melanoma it was 3.02 µM. Further, the TGI was 2.7 µM in the test with A549 NSCLC, 1.42 µM in the test on SNB-75 CNS, 3.37 µM in the test with NCI-H23 lung and 3.4 µM in the test with U251 CNS.
Take `COc1ccc(C2=NN(c3ccc(S(N)(=O)=O)cc3)C(c3ccc(Cl)cc3)C2)c(O)c1` (stereo not given): the GI50 in the test on EKVX NSCLC was 2.71 µM; with NCI-H226 lung, 5.6 µM; in the test on OVCAR-8 ovarian it was 4.74 µM; with SF-539 CNS, 10.1 µM; in the test with 786-0 renal, 2.22 µM; with UACC-62 melanoma it was 5.89 µM. Also, the GI50 is 3.38 µM in the test with A549 NSCLC, 5.87 µM in the test on SNB-75 CNS, 3.32 µM with NCI-H23 lung and 4.47 µM in the test with U251 CNS. For the same compound, the TGI amounted to 10.5 µM with EKVX NSCLC; 19.3 µM in the test on NCI-H226 lung; 44.4 µM with OVCAR-8 ovarian; 22.3 µM with SF-539 CNS; 5.15 µM in the test on 786-0 renal; 19.7 µM in the test on UACC-62 melanoma. Besides, the TGI is 35.1 µM with A549 NSCLC, 45.1 µM with SNB-75 CNS, 13.7 µM in the test with NCI-H23 lung and 21.2 µM in the test with U251 CNS.
As to `CCN1N=CSC12C(=O)N(c1ccccc1)C(=O)N2c1ccccc1` (stereo not given), the TGI in the test on EKVX NSCLC, with NCI-H226 lung, in the test on OVCAR-8 ovarian, in the test on SF-539 CNS, with 786-0 renal and in the test on UACC-62 melanoma was greater than 100 µM each time. The TGI with A549 NSCLC, in the test with SNB-75 CNS, with NCI-H23 lung and with U251 CNS was greater than 100 µM each time.
In the case of `c1ccc(CNc2nc(Nc3ccc(-c4nc5ccccc5[nH]4)cc3)c3cn[nH]c3n2)cc1`, the GI50 is 3.27 µM in the test on EKVX NSCLC; 2.98 µM in the test with NCI-H226 lung; 2.57 µM in the test on OVCAR-8 ovarian; 2 µM with SF-539 CNS; 1.77 µM in the test on 786-0 renal; 2.13 µM in the test with UACC-62 melanoma. For the same compound, the GI50 with A549 NSCLC is 2.89 µM; in the test with SNB-75 CNS, 5.12 µM; in the test with NCI-H23 lung, 2.28 µM; in the test with U251 CNS, 2.27 µM. The TGI came out at 23.6 µM with EKVX NSCLC; 8.43 µM with NCI-H226 lung; 6.73 µM in the test on OVCAR-8 ovarian; 5.19 µM with SF-539 CNS; 3.73 µM in the test with 786-0 renal; 4.92 µM in the test on UACC-62 melanoma. The TGI in the test on A549 NSCLC amounted to 8.92 µM; with SNB-75 CNS it was 47.1 µM; in the test with NCI-H23 lung, 6.13 µM; in the test on U251 CNS, 5.85 µM.
Turning to `Cc1ccc2c(c1)/C(=N\N=C/c1cn(C(C)C)c3ccccc13)C(=O)N2`, the GI50 is 22 µM in the test with EKVX NSCLC; 2.67 µM in the test with NCI-H226 lung; 4.7 µM with OVCAR-8 ovarian; 2.9 µM in the test on SF-539 CNS; 18.6 µM in the test with 786-0 renal; 2.69 µM with UACC-62 melanoma. Besides, the GI50 in the test with A549 NSCLC was 5.66 µM; in the test with SNB-75 CNS, 3.2 µM; in the test with NCI-H23 lung, 4.56 µM; in the test with U251 CNS it was 3.9 µM. Moreover, the TGI with EKVX NSCLC, with NCI-H226 lung, in the test on OVCAR-8 ovarian, in the test with SF-539 CNS, in the test with 786-0 renal and in the test on UACC-62 melanoma was greater than 100 µM throughout. The TGI with A549 NSCLC, with SNB-75 CNS, with NCI-H23 lung and with U251 CNS was greater than 100 µM each time.
With `CC(=O)NNc1nc(C)c(C(/C=C/c2ccc3c(c2)OCO3)=N/NC(=O)c2ccncc2)s1`, the TGI in the test with EKVX NSCLC, with NCI-H226 lung, in the test with OVCAR-8 ovarian, with SF-539 CNS, with 786-0 renal and in the test with UACC-62 melanoma was greater than 100 µM throughout. The TGI in the test on A549 NSCLC, in the test with SNB-75 CNS, with NCI-H23 lung and in the test on U251 CNS was greater than 100 µM in each case.
As to `C/C(=N\NC(=S)Nc1ccccc1)c1ccccn1`, the GI50 is 0.0691 µM in the test on EKVX NSCLC; 0.217 µM with NCI-H226 lung; less than 0.0169 µM in the test with OVCAR-8 ovarian; 0.581 µM in the test with SF-539 CNS; 0.277 µM with 786-0 renal; 0.264 µM in the test with UACC-62 melanoma. Moreover, the GI50 in the test on A549 NSCLC is 0.263 µM; in the test with SNB-75 CNS, 1.86 µM; in the test on NCI-H23 lung, 0.0191 µM; in the test with U251 CNS, 0.0366 µM. Also, the TGI was 7.38 µM in the test on EKVX NSCLC; 2.13 µM in the test on NCI-H226 lung; 2.54 µM with OVCAR-8 ovarian; 7.24 µM in the test on SF-539 CNS; 1.99 µM in the test with 786-0 renal; 2.96 µM with UACC-62 melanoma. Also, the TGI was determined as 2.9 µM in the test on A549 NSCLC, 11 µM with SNB-75 CNS, 5.22 µM with NCI-H23 lung and 2.39 µM in the test on U251 CNS.
As for `C=C1C(=O)C23C(O)C1CCC2C12CO[C@]3(O)[C@@H](O)C1C(C)(C)CCC2O` (stereo not given in full), the TGI in the test on EKVX NSCLC was determined as 28.9 µM; in the test on NCI-H226 lung, 34.9 µM; with OVCAR-8 ovarian, 20.5 µM; in the test on SF-539 CNS, 28.2 µM; in the test on 786-0 renal it was 25.1 µM; in the test on UACC-62 melanoma, 26.4 µM. In addition, the TGI in the test on A549 NSCLC was 34.6 µM; in the test with SNB-75 CNS it was 29.3 µM; with NCI-H23 lung, 43.4 µM; with U251 CNS, 32.2 µM.
